Laboratory results: patent US20240246941A1, “SUBSTITUTED 4-(3-AMINOPROP-1-YL)AMINOQUINOLINE ANALOGS AS MODULATORS OF MELANOMA-ASSOCIATED ANTIGEN 11 UBIQUITIN LIGASE” (ST. JUDE CHILDREN'S RESEARCH HOSPITAL, INC., priority 2020, published 2024)
In brackets after ≈: the same amount, converted by molar mass. Where two headings read alike, the source gives them in different places.

How the values were obtained:
MAGE-A11:PCF11 = MAGE-A11:PCF11 (Homo sapiens (Human), UniProt P43364); test: TR-FRET single point screening at 15 μM; format: binding; design: unit not given here; conditions: single point TR-FRET screening at 15 μM against MAGE-A11:PCF11
Summary of the method: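 Single-point screen at 15 μM (0.25% DMSO) measuring disruption of GST-MAGEA11 (5 nM) binding to FAM-PCF11_4 peptide (200 nM) detected by Tb-anti-GST (5 nM). Buffer 50 mM Tris pH 7.5, 20 mM MgCl2, 0.1 mg/ml BSA, 1 mM DTT; 90 min at ~25 °C; 520/490 nm ratio converted to % inhibition versus controls.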

[1] = target: interaction between GST-MAGEA11 MHD and FAM-PCF11_4 peptide (MAGE-A11:PCF11) (Homo sapiens (Human), UniProt P43364); test: TR-FRET dose response competition assay for disruption of MAGE-A11:PCF11 binding
Summary of the method: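 Competition TR-FRET at room temperature in 50 mM Tris pH 7.5, 20 mM MgCl2, 0.1 mg/ml BSA, 1 mM DTT: final 5 nM GST-MAGEA11 MHD, 5 nM Tb-anti-GST, 200 nM FAM-PCF11_4, 90 min. Ratio 520/490 nm converted to % inhibition; IC50 from sigmoidal fit.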

[2] = High throughput Caco-2 permeability; format: in vitro ADME; conditions: human, 10 μmol/l, 2 h, 37° C.
Description: (§1) High throughput Caco-2 permeability was performed in the TranswellR 0.4 μm polycarbonate membrane 96-well system with modified methods. Caco-2 cells were maintained at 37° C. in a humidified incubator with an atmosphere of 5% CO2. The cells were cultured in 75 cm^2 flasks with Dulbecco's Modified Eagle's Medium (DMEM) containing 10% (v/v) FBS, 1% (v/v) non-essential amino acids (NEAA), 100 units/ml of penicillin, and 100 μg/ml of streptomycin. The Caco-2 cells were seeded onto inserts at a density of 2×10^4 cells/insert separately. The medium in the wells was exchanged each other day, and the trans epithelial electrical resistance (TEER) value was measured using an epithelial voltohm meter (Millipore, Billerica, Massachusetts). […] For transport experiments, each cultured monolayer on the 96-well plate was washed twice with a transport buffer (HBSS containing 25 mM HEPES, pH 7.4). The permeability assay was initiated by the addition of each compound solution (10 μmol/l) into inserts (apical side, A) or receivers (basolateral side, B). The Caco-2 cell monolayers were incubated for 2 h at 37° C. Fractions were collected from receivers (if apical to basal permeability) or inserts (if basal to apical permeability), and concentrations were assessed by UPLC/MS (Waters; Milford, MA). All compounds were tested in triplicates. The A→B (or B→A) apparent permeability coefficients (Papp) of each compound were calculated using the equation, Papp=dQ/dt×1/AC0, where dQ/dt equals the flux of a drug across the monolayer, A equals the total insert well surface area, and C0 is the initial concentration of substrate in the donor compartment. The efflux ratio was determined by dividing the Papp in the B-A direction by the Papp in the A-B direction.

[3] = Solubility assay (μSOL Evolution, UV); format: physicochemical; conditions: 18 h at RT in buffer; for solubility at 18 h: aqueous buffer, kinetic from dmso stock
Description: Solubility assays were carried out on a Biomek FX lab automation workstation (Beckman Coulter, Inc., Fullerton, CA) using SOL Evolution software (pION Inc., Woburn, MA). The detailed method is described as follows. 10 μl of 10 mM compound stock (in DMSO) was added to 190 μl 1-propanol to make a reference stock plate. 5 μl from this reference stock plate were mixed with 70 μl 1-propanol and 75 μl citrate phosphate-buffered saline (PBS; isotonic) to make the reference plate, and the UV spectrum (250-500 nm) of the reference plate was read. 6 μl of 10 mM test compound stock was added to 594 μl buffer in a 96-well storage plate and mixed. The storage plate was sealed and incubated at RT for 18 h. The suspension was then filtered through a 96-well filter plate (pION Inc., Woburn, MA). 75 μl of filtrate was mixed with 75 μl 1-propanol to make the sample plate, and the UV spectrum of the sample plate was read. Calculations were carried out with μSOL Evolution software based on the area under the curve (AUC) of the UV spectrum of the sample and reference plates. All compounds were tested in triplicate.

Caco-2 cell monolayers = test: High throughput Caco-2 permeability; format: in vitro ADME
Description: as §1

[4] = Table 8, representative compounds, read-out: TR-FRET IC50
[5] = Table 6, 4-aminoquinoline compounds, read-out: TR-FRET, IC50
[6] = Caco-2, pH 7.4, apical to basolateral, read-out: Caco-2 permeability, A/B
[7] = Caco-2, pH 7.4, basolateral to apical, read-out: Caco-2 permeability, B/A
[8] = read-out: IC50 by TR-FRET for disrupting MAGE-A11:PCF11 interaction
[9] = Dose response TR-FRET screening of nine scaffold groups against MAGE-A11:PCF11, read-out: consensus IC50

Sequence of interaction between GST-MAGEA11 MHD and FAM-PCF11_4 peptide (MAGE-A11:PCF11) (P43364 218-429): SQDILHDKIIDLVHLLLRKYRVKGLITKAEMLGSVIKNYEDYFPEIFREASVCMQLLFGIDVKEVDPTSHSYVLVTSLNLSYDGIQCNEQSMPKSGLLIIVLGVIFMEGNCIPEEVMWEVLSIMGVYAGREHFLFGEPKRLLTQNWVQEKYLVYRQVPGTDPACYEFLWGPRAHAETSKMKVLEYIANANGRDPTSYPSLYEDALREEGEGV
Sequence of MAGE-A11:PCF11 (P43364 218-429): as above

SMILES | IC50 [1, 5] [µM] | Papp at 2 h, 10 μmol/l [2, 6] [×10⁻⁶ cm/s] | Papp at 2 h, 10 μmol/l [2, 7] [×10⁻⁶ cm/s] | solubility at 18 h [3] [µM] | IC50 [1, 9] [µM] | also measured
CCCN(CCCCNc1ccnc2cc(Cl)ccc12)Cc1cc(Br)ccc1O [SJ000311196] | – | – | – | – | – | TR-FRET signal (MAGE-A11:PCF11): 5.724; IC50 [1, 4]: 69.9 µM
FC(F)(F)c1cc(-c2ccc3c(NCCCNCc4ccco4)ccnc3c2)cc(C(F)(F)F)c1 [SJ000311270-01] | 0.58 | 0.326 | 0.079 | – | – | Solubility [3]: 61.08 µM (≈ 30.1 µg/mL)
CC(C)(C)c1ccc(-c2ccc3c(NCCCNCc4ccco4)ccnc3c2)cc1 [SJ000311286-01] | – | 0.578 | 0.12 | – | – | IC50 [1, 8]: 1.16 µM; Solubility [3]: 56.16 µM (≈ 23.2 µg/mL)
FC(F)(F)c1ccc2c(NCCCNCc3ccc4c(c3)OCO4)ccnc2c1 [SJ000361106-02, N^1-(Benzo[d][1,3]dioxol-5-ylmethyl)-N^3-(7-(trifluoromethyl)quinolin-4-yl)propane-1,3-diamine] | > 74 | 47 | 40 | 129 (≈ 51.9 µg/mL) | – | IC50 [1, 4]: 69.9 µM
FC(F)(F)c1ccc2c(NCCCNCc3ccco3)ccnc2c1 [SJ000361113-02, N^1-(Furan-2-ylmethyl)-N^3-(7-(trifluoromethyl)quinolin-4-yl)propane-1,3-diamine] | > 70 | 50.2 | 40.1 | 119 (≈ 41.6 µg/mL) | – | –
Clc1ccc2c(NCCCNCc3ccc4[nH]ccc4c3)ccnc2c1 [SJ000520909-03, N^1-((1H-Indol-5-yl)methyl)-N^3-(7-chloroquinolin-4-yl)propane-1,3-diamine] | 0.24 | 19.6 | 21.3 | 59.8 (≈ 21.8 µg/mL) | – | IC50 [1, 4]: 67.1 µM
COc1ccc(C2Nc3ccccc3C(=O)N2CCCN2CCOCC2)cc1OC(F)F (stereo not drawn) [SJ000803760-1] | – | – | – | – | 72.1 | –
Cc1cc(C)c(C2Nc3ccccc3C(=O)N2CCCN2CCOCC2)cc1C (stereo not drawn) [SJ000803761-1] | – | – | – | – | 62.3 | –
CSc1ccc(C2Nc3ccccc3C(=O)N2CCCN2CCOCC2)cc1 (stereo not drawn) [SJ000803762-1] | – | – | – | – | 71.3 | –
COc1ccc2cc(C3Nc4ccccc4C(=O)N3CCCN3CCOCC3)ccc2c1 (stereo not drawn) [SJ000803763-1] | – | – | – | – | 67.4 | –
O=C1c2ccccc2NC(c2ccc(F)c(Br)c2)N1CCCN1CCOCC1 (stereo not drawn) [SJ000803764-1] | – | – | – | – | 68 | –
CN(C)c1ccc(C2Nc3ccccc3C(=O)N2CCCN2CCOCC2)cc1 (stereo not drawn) [SJ000803767-1] | – | – | – | – | 71.1 | –
Cc1ccc(C2Nc3ccccc3C(=O)N2CCCN2CCOCC2)cc1 (stereo not drawn) [SJ000803768-1] | – | – | – | – | 65.9 | –
CCCn1c(=O)c2nc(-c3ccccc3)[nH]c2n(CCC)c1=O [SJ000832251-1] | – | – | – | – | 73 | –
C=CCn1c(=O)c2c(nc(-c3ccccc3)n2C)n(C)c1=O [SJ000832270-1] | – | – | – | – | 85.8 | –
Fc1ccc2c(NCCCNCc3ccc(OC(F)(F)F)cc3)ccnc2c1 [SJ000834150] | – | – | – | – | – | IC50 [1, 4]: > 67.3 µM
CCc1ccc(OCc2ccccc2C(=O)Nc2ccc3nc(C)cc(N)c3c2)cc1 [SJ000855285] | – | – | – | – | – | IC50 [1, 4]: 9.29 µM
Brc1ccc2c(NCCCNCc3ccc4[nH]ccc4c3)ccnc2c1 [SJ001008065-01, N^1-((1H-Indol-5-yl)methyl)-N^3-(7-bromoquinolin-4-yl)propane-1,3-diamine] | 0.62 | 18.3 | 19.3 | 57.1 (≈ 23.4 µg/mL) | – | –
c1ccc2c(NCCCNCc3ccc4[nH]ccc4c3)ccnc2c1 [SJ001008066-01, N^1-((1H-Indol-5-yl)methyl)-N^3-(quinolin-4-yl)propane-1,3-diamine] | – | 8.17 | 8.09 | – | – | IC50 [1, 8]: 0.13 µM; cell permeability (Caco-2 cell monolayers): cell permeable; Solubility [3]: 37.77 µM (≈ 12.5 µg/mL)
Cn1ccc2cc(CNCCCNc3ccnc4cc(C(F)(F)F)ccc34)ccc21 [SJ001008067-01, N^1-((1-Methyl-1H-indol-5-yl)methyl)-N^3-(7-(trifluoromethyl)quinolin-4-yl)propane-1,3-diamine] | 1.16 | 21.4 | 12.3 | 19.4 (≈ 8 µg/mL) | – | –
CC(C)(C)c1ccc(-c2ccc3c(NCCCNCc4ccc5[nH]ccc5c4)ccnc3c2)cc1 [SJ001008068-01, N^1-((1H-Indol-5-yl)methyl)-N^3-(7-(4-(tert-butyl)phenyl)quinolin-4-yl)propane-1,3-diamine] | 0.13 | 0.368 | 1.54 | 0.67 (≈ 0.31 µg/mL) | – | –
FC(F)(F)c1cc(-c2ccc3c(NCCCNCc4ccc5[nH]ccc5c4)ccnc3c2)cc(C(F)(F)F)c1 [SJ001008069-01, N^1_((1H-Indol-5-yl)methyl)-N^3-(7-(3,5-bis(trifluoromethyl)phenyl)quinolin-4-yl)propane-1,3-diamine] | 0.2 | 0.498 | 0.229 | 0.12 (≈ 0.0651 µg/mL) | – | –
C=CC(=O)N(CCCNc1ccnc2ccccc12)Cc1ccc2[nH]ccc2c1 [SJ001009807-01, N-((1H-Indol-5-yl)methyl)-N-(3-(quinolin-4-ylamino)propyl)acrylamide] | 3.5 | 2.73 | 18.9 | 34.8 (≈ 13.4 µg/mL) | – | –
